The values below are quoted from earlier work in patent US20100015044A1, “Methods and compositions for diagnosis of iga-and igm-mediated kidney diseases” (priority 2005, published 2010).

The subject of data set [1] is IgG. To be noted: transfection studies in leukocytes.
For data set [2], the system named is human IgA.
The subject of data set [3] is human rheumatoid factor.
Data set [4] addresses murine IgM (Mus musculus, UniProt P01872).
The subject of data set [5] is other immunoglobulins.
For data set [6], the target named is IgM (Homo sapiens, UniProt P01871).
Chain of IgM (P01871 1-433 limits assumed): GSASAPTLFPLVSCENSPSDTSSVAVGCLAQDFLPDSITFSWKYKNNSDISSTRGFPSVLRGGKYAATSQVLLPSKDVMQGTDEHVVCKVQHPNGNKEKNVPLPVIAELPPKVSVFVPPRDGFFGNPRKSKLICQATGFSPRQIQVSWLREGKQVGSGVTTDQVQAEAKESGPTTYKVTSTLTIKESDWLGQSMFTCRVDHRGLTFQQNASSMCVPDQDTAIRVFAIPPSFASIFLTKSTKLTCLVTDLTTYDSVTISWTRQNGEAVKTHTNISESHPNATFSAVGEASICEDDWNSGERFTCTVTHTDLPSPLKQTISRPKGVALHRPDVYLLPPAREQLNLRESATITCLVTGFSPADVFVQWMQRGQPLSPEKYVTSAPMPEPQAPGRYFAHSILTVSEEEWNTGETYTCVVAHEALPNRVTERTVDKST
Chain of IgM (P01591 23-159 partner): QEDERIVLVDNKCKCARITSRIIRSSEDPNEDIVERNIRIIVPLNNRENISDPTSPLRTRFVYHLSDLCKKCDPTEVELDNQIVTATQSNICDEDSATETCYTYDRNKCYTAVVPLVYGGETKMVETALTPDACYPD
The test system of data set [7] is IgA.

Chain of murine IgM (P01872 whole entry, other chains not shown): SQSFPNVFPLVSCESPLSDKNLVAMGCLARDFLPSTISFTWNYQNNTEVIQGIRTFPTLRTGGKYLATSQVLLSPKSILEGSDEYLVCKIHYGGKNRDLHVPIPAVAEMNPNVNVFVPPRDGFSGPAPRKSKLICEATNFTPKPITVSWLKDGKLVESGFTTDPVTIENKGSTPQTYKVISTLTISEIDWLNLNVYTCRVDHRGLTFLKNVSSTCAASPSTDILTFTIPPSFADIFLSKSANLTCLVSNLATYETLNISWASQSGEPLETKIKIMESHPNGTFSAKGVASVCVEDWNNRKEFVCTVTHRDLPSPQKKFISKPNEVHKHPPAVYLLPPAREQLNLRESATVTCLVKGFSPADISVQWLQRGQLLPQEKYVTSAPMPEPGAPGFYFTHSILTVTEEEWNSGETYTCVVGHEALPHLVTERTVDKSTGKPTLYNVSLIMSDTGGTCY
Chain of murine IgM (P01592 23-159 partner limits assumed, other chains not shown): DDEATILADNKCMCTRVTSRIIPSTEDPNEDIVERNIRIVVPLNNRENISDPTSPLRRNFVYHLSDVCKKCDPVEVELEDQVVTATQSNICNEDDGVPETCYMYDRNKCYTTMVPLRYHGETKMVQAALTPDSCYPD

As to “FcαR1: human membrane glycoprotein Fc receptor for IgA”, in data set [1], the “binding to IgG” value was “does not bind IgG”.

For “Sap: 50-residue synthetic peptide including the 29-residue IgA-binding region of Sir22, with C-terminal cysteine (YYALSDAKEEEPRYKALRGENQDLREKERKYQDKIKKLEEKEKNLEKKSC; Sap)”, the “binding to human IgA” value in data set [2] is given as “specifically binds”.

For “YDWIPSSAW (IgM binding peptide) [YDWIPS SAW]”, in data set [3], the “inhibition of human rheumatoid factor induced agglutination of IgG-coated latex beads” value is given as “inhibits”. In data set [4], the “binding to murine IgM” value is given as “high affinity”. In addition, the “binding to other immunoglobulins” value in data set [5] was “no binding abilities”.

B1: human Fcα/μ receptor: human receptor constitutively expressed on the majority of B-lymphocytes and macrophages (protein, listed as Homo sapiens)
chain: MDGEATVKPGEQVPLWTHGWPPDDPSPSFAAGSSFALPQKRPHPRWLWEGSLPSRTHLRAMGTLRPSSPLCWREESSFAAPNSLKGSRLVSGEPGGAVTIQCHYAPSSVNRHQRKYWCRLGPPRWICQTIVSTNQYTHHRYRDRVALTDFPQRGLFVVRLSQLSPDDIGCYLCGIGSENNMLFLSMNLTISAGPASTLPTATPAAGELTMRSYGTASPVANRWTPGTTQTLGQGTAWDTVASTPGTSKTTASAEGRRTPGATRPAAPGTGSWAEGSVKAPAPIPESPPSKSRSMSNTTEGVWEGTRSSVTNRARASKDRREMTTTKADRPREDIEGVRIALDAAKKVLGTIGPPALVSETLAWEILPQATPVSKQQSQGSIGETTPAAGMWTLGTPAADVWITSMEAASGEGSAAGDLDAATGDRGPQATLSQTPAVGPWGPPGKESSVKRATCPGLSTLKEIKVSAVLTQNPHSLLCVSAAQEAERVTLIQMTHFLEVNPQADQLPHVERKMLQDDSLPAGASLTAPERNPGP
As to B1, the “binding to IgM” value in data set [6] was “intermediate to high affinity”. Moreover, the “binding to IgA” value in data set [7] is reported as “intermediate to high affinity”.
